Assay results taken from US12129490B2, “Methods for generating hepatocytes and cholangiocytes from pluripotent stem cells” (UNIVERSITY HEALTH NETWORK, priority 2018, dated 2024).
Where two headings read alike, the source gives them in different places.

Tests used:
[1] = system: H9- and iPSC (38-2)-derived hepatic aggregates
Description: (§1) HPSCs were maintained on irradiated mouse embryonic feeder cells in hESC media consisting of DEME/F12 (50:50; Gibco) supplemented with 20% Knock-out serum replacement (KSR) as described previously^44. Prior to the generation of embryoid bodies (EBs), hESCs were passaged onto Matrigel™-coated plates for 1 day to deplete the population of feeder cells. […] At day 1, the EBs were harvested and re-cultured in induction medium A that consisted of StemPRO-34® supplemented with glutamine (2 mM), ascorbic acid ([…]; Sigma), MTG ([…]; Sigma), basic fibroblast growth factor (bFGF; 2.5 ng/ml), activin A (100 ng/ml), Wnt3a (25 ng/ml) and BMP4 (0.25 ng/ml) for 3 days. On day 4, the EBs were harvested and re-cultured in StemPRO-34® supplemented with bFGF (10 ng/ml), activin A (100 ng/ml), Wnt3a (25 ng/ml) and BMP4 (0.25 ng/ml) (medium B). EBs were harvested at day 6, dissociated to single cells and the cells cultured for 2 days on Matrigel™-coated 12 well plates at a concentration of 4×10^5 cells in media B without Wnt3A and with activin A at a concentration of 50 ng/ml. At day 8, medium B was replaced with hepatic specification media that consisted of Iscove's Modified Dulbecco's Medium (IMDM) supplement with 1% vol/vol B27 supplement (Invitrogen: A11576SA), ascorbic acid, MTG, FGF10 (50 ng/ml) (from day 8 to day 10), bFGF (20 ng/ml) (from day 10 to day 14), and BMP4 (50 ng/ml). Media was changed every 2 days from day 8 to day 14. To promote maturation of HES2-derived hepatic cells, they were cultured in maturation media A for 12 days. Maturation media A consisted of IMDM with 1% vol/vol B27 supplement, ascorbic acid, Glutamine, MTG, Hepatocyte growth factor (HGF) (20 ng/ml), Dexamethasone Dex) (40 ng/ml) and Oncostatin M (20 ng/ml). Aggregates were generated from the population at day 26 of culture. To generate aggregates the cells were dissociated with collagenase and TrypleLE and then cultured in six well ultra-low cluster dishes at a concentration of 6×10^5 cells per well in maturation medium A supplemented with Rho-kinase inhibitor and 0.1% BSA. Aggregates were maintained under these conditions until day 32, with media changes every 3 days. […] Media was changed every 3 days. To generate hepatocyte like cells from H9, H1 and IPS cells, the following changes were made to the hepatic specification media. […] All cytokines were human and purchased from R&D Systems, unless stated otherwise. EB and monolayer cultures were maintained in a 5% CO2, 5% O2, 90% N2 environment. Aggregation cultures were maintained in a 5% CO2 ambient air environment.
(§2) Total RNA was prepared with RNAqueous® Micro Kit (Ambion) and treated with RNase-free DNase (Ambion). 500 ng to 1 μg RNA was reverse transcribed into cDNA using random hexamers and Oligo(dT) with Superscript® III Reverse Transcriptase (Invitrogen). qPCR was performed on a MasterCycler® ep realplex (Eppendorf) using A QuentiFast SYBR Green PCR Kit (Quiagen) as described previously^45. Expression levels were normalized to the housekeeping gene TATA box binding protein (TBP). […] Total human adult and fetal liver RNA was purchased from Clontech. Two primary hepatocyte RNA samples were provided by Dr Stephen C. […] Two primary hepatocyte samples were cultured for two day and were harvested.

[2] = system: hESC-derived hepatic aggregates
Text: To further mature the cells, the role of cAMP signaling was investigated. Studies using hepatic cell lines have shown that activation of this pathway can induce hepatic gene expression, in part through the induction of the peroxisome proliferator-activated receptor gamma coactivator-1-alpha (PGC1-a), a coactivator that functions together with HNF4a to regulate the expression of many genes involved in hepatocyte function 25 28. […] The proportion of ALB positive cells was not reduced in spite of the fact that the levels of mRNA declined (FIG. 5b). Without being bound by theory, these differences could reflect differences in RNA vs. protein expression. Other tissues, such as the pancreas, also express PGC-1a.
as §1, §2

[3] = hepatic aggregates, day 32 to 44
[4] = hepatic aggregates, day 32 to 44, average

Nc1ncnc2c1nc(Br)n2[C@@H]1O[C@@H]2COP(=O)(O)O[C@H]2[C@H]1O [8-Br-cAMP, 8-bromoadenosine-3′5″-cyclic monophosphate]
expression of CYP1A2 [1]: 100 fold | expression of CYP2B6 [1]: 10 fold | expression of CYP3A4 [1]: 16 fold | expression of CYP3A4, CYP1A2, CYP2B6 and UGT1A1 [1]: as high as those in primary hepatocytes | expression of UGT1A1 ([1]; H9-derived aggregates): 16 fold | expression of CYP1A2 and CYP3A4 [2]: little increase | increase in expression of CYP1A2 [2]: 18 fold | increase in expression of CYP2B6 [2]: 4.7 fold | increase in expression of CYP3A4 [2]: 2.5 fold | induction of UGT1A1 expression ([2]; HES2-derived aggregates, day 44, relative to non-treated): 11 fold | expression of PGC1-a ([2]; hESC-derived insulin positive pancreatic cells): not induced | expression level of AFP [2, 3]: downregulated | expression level of ALB [2, 3]: downregulated | expression of PGC1-a [2, 3]: 15 fold | expression of G6P [2, 4]: 25 fold | expression of TAT [2, 4]: 33 fold
